Measured values taken from US7915276B2, “Berberrubine derivatives having antifungal activities” (priority 2006, dated 2011).

Assays:
[1] = system: Candida glabrata ATCC 48435; assay: In vitro antifungal activity (MIC), NCCLS method; assay type: cell-based; settings: Candida glabrata ATCC 48435; 48 hours
Outline: (§1)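 ATCC reference strains tested by NCCLS MIC method. Final inoculum 5×10^2 to 2.5×10^3 cell/mL over a two-fold dilution series; 48 h incubation.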

[2] = system: Candida tropicalis ATCC 13803; assay: In vitro antifungal activity (MIC), NCCLS method; assay type: cell-based; settings: 48 hours
Outline: as §1

[3] = system: Candida albicans ATCC 10231; assay: In vitro antifungal activity (MIC), NCCLS method; assay type: cell-based; settings: 48 hours
Outline: as §1

[4] = system: Candida lusitaniae ATCC 42720; assay: In vitro antifungal activity (MIC), NCCLS method; assay type: cell-based; settings: 48 hours
Outline: as §1

[5] = system: Candida albicans A207 (clinical isolate); assay: In vitro antifungal activity (MIC), NCCLS method; assay type: cell-based; settings: 48 hours
Outline: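 MIC read as the lowest concentration inhibiting growth after 48 hours of culture. Setup follows NCCLS: compound diluted two-fold and inoculated at 5×10^2 to 2.5×10^3 cell/mL final.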

[6] = system: Mucor ramosissimus ATCC 90286; assay: In vitro antifungal activity (MIC), NCCLS method; assay type: cell-based; settings: 48 hours
Outline: as §1

[7] = system: Aspergillus terreus ATCC 46941; assay: In vitro antifungal activity (MIC), NCCLS method; assay type: cell-based; settings: 48 hours
Outline: (§2)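 According to NCCLS guidance, each compound is diluted two-fold and challenged with a fungal inoculum of 5×10^2 to 2.5×10^3 cell/mL (final). Incubation lasts 48 hours.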

[8] = system: Aspergillus fumigatus ATCC 16424; assay: In vitro antifungal activity (MIC), NCCLS method; assay type: cell-based; settings: 48 hours
Outline: as §2

Candida krusei ATCC 6258 = assay: In vitro antifungal activity (MIC), NCCLS method; assay type: cell-based; settings: 48 hours
Outline: as §1

[9] = system: Cryptococcus neoformans ATCC 36556; assay: In vitro antifungal activity (MIC), NCCLS method; assay type: cell-based; settings: RPMI 1640 medium, 72 hours
Outline: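 Broth microdilution per NCCLS: two-fold serial dilutions of test compound inoculated with fungal suspension at a final 5×10^2 to 2.5×10^3 cell/mL. Strains other than Cryptococcus neoformans were incubated 48 hours before MIC reading.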

[10] = system: Candida parapsilosis ATCC 34136; assay: In vitro antifungal activity (MIC), NCCLS method; assay type: cell-based; settings: Candida parapsilosis ATCC 34136; 48 hours
Outline: as §1

[11] = system: Aspergillus flavus ATCC 64025; assay: In vitro antifungal activity (MIC), NCCLS method; assay type: cell-based; settings: 48 hours
Outline: as §2

[12] = molecular target: T1, chitin synthase 2 of Saccharomyces cerevisiae ECY38-38A(pAS6) (Saccharomyces cerevisiae, UniProt P14180); assay: In vitro enzyme assay for chitin synthase 2 of Saccharomyces cerevisiae (enzyme 2); assay type: biochemical; settings: relative to polyoxin D (50% inhibitory activity = value 5)
T1 construct: made in house; host or cells: Saccharomyces cerevisiae ECY38-38A (chs1-23 chs2::LEU2 cal1/csd2) carrying plasmid pAS6, grown in galactose medium; 130,000 x g membrane pellet
Outline: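 Crude membrane chitin synthase 2 came from S. cerevisiae ECY38-38A(pAS6), expressing only CHS2, and was trypsin-activated (15 min, 30 °C) then trypsin-inhibited. The reaction ran in 32 mM Tris-HCl pH 7.5, 2 mM cobalt acetate, 1.1 mM UDP-[14C]-GlcNAc, 90 min at 30 °C. TCA-precipitated product was counted by scintillation; scores 1–8 reflect concentration relative to polyoxin D's 50% inhibition (score 5).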

[13] = molecular target: T2, chitin synthase 1 of Candida albicans chs2 Δ chs 3 Δ (Candida albicans, UniProt P23316); assay: In vitro enzyme assay for chitin synthase 1 of Candida albicans (enzyme 1); assay type: biochemical; settings: relative to polyoxin D (50% inhibitory activity = value 5)
T2 construct: Crude enzyme was prepared using the Candida albicans chs2 Δ chs 3 Δ mutant; endogenous in cells; host or cells: Candida albicans chs2Δ/chs2Δ chs3Δ/chs3Δ mutant; 130,000 x g membrane pellet
Outline: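 Crude membrane enzyme from the C. albicans chs2Δ chs3Δ strain was trypsin-activated for 15 min at 30 °C. Reaction: 32 mM Tris-HCl pH 7.5, 2 mM cobalt acetate, 1.1 mM UDP-[14C]GlcNAc, 90 min at 30 °C; TCA-insoluble radioactivity counted. Scored 1–8 by relative polyoxin D concentration (5 = equal).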

T1 sequence (P14180 whole entry): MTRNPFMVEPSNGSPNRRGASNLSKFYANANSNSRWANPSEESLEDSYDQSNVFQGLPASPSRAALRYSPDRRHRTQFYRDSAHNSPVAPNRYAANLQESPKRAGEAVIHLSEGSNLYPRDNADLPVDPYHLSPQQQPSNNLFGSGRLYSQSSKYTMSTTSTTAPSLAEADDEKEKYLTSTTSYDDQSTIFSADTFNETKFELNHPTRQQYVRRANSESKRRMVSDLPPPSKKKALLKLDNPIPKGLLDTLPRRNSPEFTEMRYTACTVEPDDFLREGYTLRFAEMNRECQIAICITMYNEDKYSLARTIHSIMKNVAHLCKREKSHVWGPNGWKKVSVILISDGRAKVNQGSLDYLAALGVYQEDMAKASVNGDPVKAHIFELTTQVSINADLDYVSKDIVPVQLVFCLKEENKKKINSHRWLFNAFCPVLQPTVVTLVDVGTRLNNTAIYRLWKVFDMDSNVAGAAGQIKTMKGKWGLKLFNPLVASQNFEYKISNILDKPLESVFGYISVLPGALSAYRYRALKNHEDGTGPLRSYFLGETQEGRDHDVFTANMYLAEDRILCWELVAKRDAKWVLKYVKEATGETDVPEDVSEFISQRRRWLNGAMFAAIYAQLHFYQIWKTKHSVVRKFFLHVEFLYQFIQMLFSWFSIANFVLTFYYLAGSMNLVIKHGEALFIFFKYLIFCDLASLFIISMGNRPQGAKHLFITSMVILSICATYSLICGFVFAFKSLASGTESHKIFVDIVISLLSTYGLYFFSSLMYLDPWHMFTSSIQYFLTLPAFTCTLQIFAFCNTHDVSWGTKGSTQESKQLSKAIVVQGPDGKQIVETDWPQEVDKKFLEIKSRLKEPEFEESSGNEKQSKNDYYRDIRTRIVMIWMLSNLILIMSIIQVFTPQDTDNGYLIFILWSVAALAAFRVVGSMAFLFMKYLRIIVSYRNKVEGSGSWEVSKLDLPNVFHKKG
T2 sequence (P23316 whole entry, stated change not applied): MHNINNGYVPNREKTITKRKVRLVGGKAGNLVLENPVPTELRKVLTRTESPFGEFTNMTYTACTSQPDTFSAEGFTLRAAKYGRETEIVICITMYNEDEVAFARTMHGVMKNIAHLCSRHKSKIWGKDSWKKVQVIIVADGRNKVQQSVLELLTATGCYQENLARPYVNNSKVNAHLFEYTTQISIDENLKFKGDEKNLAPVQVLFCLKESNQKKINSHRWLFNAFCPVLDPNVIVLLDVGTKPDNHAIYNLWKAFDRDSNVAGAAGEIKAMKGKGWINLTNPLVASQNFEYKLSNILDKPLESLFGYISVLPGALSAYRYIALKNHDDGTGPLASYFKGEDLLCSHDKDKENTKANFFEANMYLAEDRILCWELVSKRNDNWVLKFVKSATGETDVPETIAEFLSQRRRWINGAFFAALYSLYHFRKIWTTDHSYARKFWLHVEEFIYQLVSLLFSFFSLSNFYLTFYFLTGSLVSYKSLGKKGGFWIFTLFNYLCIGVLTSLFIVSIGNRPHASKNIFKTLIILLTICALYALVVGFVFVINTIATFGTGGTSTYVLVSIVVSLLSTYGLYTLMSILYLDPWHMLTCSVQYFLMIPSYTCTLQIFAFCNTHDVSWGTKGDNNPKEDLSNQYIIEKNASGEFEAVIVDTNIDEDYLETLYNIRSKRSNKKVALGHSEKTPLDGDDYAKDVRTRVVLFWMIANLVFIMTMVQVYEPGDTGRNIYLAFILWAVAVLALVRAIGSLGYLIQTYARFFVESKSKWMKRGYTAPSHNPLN

Row | Substance | MIC (minimum inhibitory concentration) [1] [µg/mL] | MIC (minimum inhibitory concentration) [2] [µg/mL] | MIC (minimum inhibitory concentration) [3] [µg/mL] | MIC (minimum inhibitory concentration) [4] [µg/mL] | MIC (minimum inhibitory concentration) [5] [µg/mL] | MIC (minimum inhibitory concentration) [6] [µg/mL] | MIC (minimum inhibitory concentration) [7] [µg/mL] | MIC (minimum inhibitory concentration) [8] [µg/mL] | MIC (minimum inhibitory concentration) (Candida krusei ATCC 6258) [µg/mL] | MIC (minimum inhibitory concentration) [9] [µg/mL] | MIC (minimum inhibitory concentration) [10] [µg/mL] | MIC (minimum inhibitory concentration) [11] [µg/mL] | Relative activity Enzyme 2 [12] | Relative activity Enzyme 1 [13]
1 | 13-(4-tert-Butylbenzyl)-9-O-(6-chlorohexyl)berberrubine iodide [Compound No. 12] | 2 | 0.5 | 0.5 | 2 | 0.5 | 4 | 8 | 2 | 1 | 1 | 2 | 8 | 5 (A compound having the same inhibitory activity as that of polyoxin D at the same concentration was given the value 5) | 2 (Compounds having the inhibitory activity at 2-fold, 4-fold, 8-fold and 16-fold higher concentrations than that of polyoxin D were given the values of 4, 3, 2 and 1, respectively)
2 | 13-(4-Isopropylbenzyl)-9-O-(3-hydroxypropyl)berberrubine iodide [Compound No. 21] | 2 | 0.5 | 0.5 | 2 | 0.5 | 4 | 8 | 2 | 1 | 1 | 2 | 8 | 6 (compounds having the inhibitory activity at ½, ¼ and ⅛ lower concentrations than that of polyoxin D were given the values of 6, 7 and 8, respectively) | 3 (Compounds having the inhibitory activity at 2-fold, 4-fold, 8-fold and 16-fold higher concentrations than that of polyoxin D were given the values of 4, 3, 2 and 1, respectively)
3 | 13-(4-tert-Butylbenzyl)-9-O-hexylberberrubine iodide [Compound No. 9] | 2 | 0.125 | 0.25 | 1 | 0.25 | 4 | 8 | 2 | 1 | 1 | 2 | 8 | 6 (compounds having the inhibitory activity at ½, ¼ and ⅛ lower concentrations than that of polyoxin D were given the values of 6, 7 and 8, respectively) | 3 (Compounds having the inhibitory activity at 2-fold, 4-fold, 8-fold and 16-fold higher concentrations than that of polyoxin D were given the values of 4, 3, 2 and 1, respectively)
4 | 13-(4-tert-Butylbenzyl)-9-O-allylberberrubine chloride [Compound No. 45] | 8 | 1 | 1 | 2 | 1 | 4 | 8 | 8 | 2 | 2 | 4 | 8 | 6 (compounds having the inhibitory activity at ½, ¼ and ⅛ lower concentrations than that of polyoxin D were given the values of 6, 7 and 8, respectively) | 2 (Compounds having the inhibitory activity at 2-fold, 4-fold, 8-fold and 16-fold higher concentrations than that of polyoxin D were given the values of 4, 3, 2 and 1, respectively)
